# Columns and labels:
# SIK1 = molecular target: T1, SIK1 (Homo sapiens, UniProt P57059); experiment: biochemical; details: 33P radioactive SIK kinase assay, AMARA peptide, 10 μM ATP; read-out: SIK1 IC50
# T1 construct: purchased Carna Biosciences 02-131
# In short: (§1)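 Read-out: ^33P incorporated into AMARA peptide, counted on filter plates, taken as kinase activity. Reactions start on addition of labeled/unlabeled ATP to enzyme plus substrate and end with phosphoric acid. Controls: 1% DMSO (negative) and 10 μM staurosporine (positive), final.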
# SIK2 = molecular target: T2, SIK2 (Homo sapiens, UniProt Q9H0K1); experiment: biochemical; details: 33P radioactive SIK kinase assay, AMARA peptide, 10 μM ATP
# T2 construct: purchased ThermoFisher Scientific PV4792
# In short: as §1
# SIK3 = molecular target: T3, SIK3 (Homo sapiens, UniProt Q9Y2K2); experiment: biochemical
# T3 construct: purchased SignalChem S12-11G-100
# In short: as §1
# [1] = system: LPS-induced TNFα secretion in monocyte-derived macrophages (MdM); experiment: MdM assay: LPS-triggered TNFα (ELISA); type: cell-based, human; details: Homo sapiens, Macrophage, LPS-triggered TNFα inhibition
# Experimental: This assay evaluates illustrative compounds of the invention for their inhibition of LPS-induced TNFα and LPS triggered IL-10 secretion in monocyte-derived macrophages.
# PBMCs are isolated from human blood samples (buffycoats). The buffy coat is aseptically transferred into a 50 mL Falcon tube, and diluted 1/2 in PBS. Falcon tubes are filled with 20 mL Lymphoprep™, on top of which 25 mL of the buffy coat is carefully added, tubes are centrifuged for 35 min at 400 g in temperature controlled centrifuge, without brake, at 25° C. PBMCs are aspirated from the white interface layer between sample and Lymphoprep™. PBMCs are washed five times in PBS.
# PBMCs are centrifuged at 300×g for 10 min and resuspended at a density of 1.0E07 cells/80 μL Miltenyi buffer (PBS, pH 7.4, 1% FBS, 2 mM EDTA).
# Starting from this point of the protocol all steps are performed on ice. 20 μL of CD14+ micro-beads are added per 1.0E07 cells, the tube is mixed and incubated for 15 min in the fridge at 4° C. Cell suspension volume is adjusted to total volume of 100 mL using Miltenyi buffer, mixed gently and subsequently centrifuged for 10 min at 300× g. Supernantant is discarded and cell pellet is resuspended in 12 mL of Miltenyi buffer.
# Four LS columns are placed in the MACS Separator (magnet) from Miltenyi Biotec, and are prewet by rinsing with 3 mL of MACS buffer per column. Three mL of cell suspension is added onto the column (max 1*10^8 of labelled cells/column), and columns are subsequently washed 3 times with 3 mL of Miltenyi buffer.
# The columns are removed from the magnets, and 5 mL of Miltenyi buffer are added to the column to flush out the CD14+ fraction by pushing the plunger into the column. The flushed fractions are collected in a fresh 50 mL Falcon and volume is adjusted to 30 mL using Miltenyi buffer, cells are centrifuged for 10 min at 300× g. The obtained cell pellet is resuspended in 10 mL RPMI w/o FBS, and cell density is determined using a hematologic analyser (Sysmex XS-500i).
# On day 10, MdMs are triggered and compound is added.
# A compound dilution plate is made in 100% DMSO by 3-fold dilution of 10 mM stock solution. An intermediate dilution plate (10× final concentration) is made by diluting the compound dilution plate 50-fold in RPMI medium.
# Medium is carefully removed from cell plates using multichannel pipette, and replaced by 80 μL fresh medium. 10 μL of the 10× final concentration compound is added to the cells and incubated for 1 hour at 37° C. before addition of trigger. No trigger conditions/trigger conditions are spiked with equal final DMSO concentrations of 0.2% DMSO. 10 μL of 10×LPS (final conc. 200 ng/mL) solution are added to all wells except for the ‘no trigger wells’ where 10 μL medium is added. Supernatant is collected after 2 h (IL-10 determination) and after 20 h (TNFα determination) of LPS triggering.
# The plate is then washed once with PBST (PBS+0.05% Tween20) and once with PBS followed by the addition of 100 μL of blocking buffer (1% Bovine Serum Albumin (BSA)-5% Sucrose) and plates are sealed and incubated for at least 4 h at RT. After washing the plate once with PBST and once with PBS, 40 μL of standard or sample are added (TNFα standard curve is prepared using a 1/2 serial dilution starting from 16000 pg/mL; dilutions are made in dilution buffer (PBS+1% BSA)). Plates are washed twice with PBST, and once with PBS, after which 35 μL of the detection antibody is added (final concentration 0.25 μg/mL diluted in dilution buffer) and plates are incubated for at least 2 h at RT. Plates are washed twice with PBST, and once with PBS, where after 35 μL of Strep-HRP conjugate (0.5 μg/mL final concentration diluted in dilution buffer) is added. Plates are incubated in the dark, at RT for at least 45 min but no longer than 1 hour. Plates are washed twice with PBST, and once with PBS.
# T2 sequence (Q9H0K1 whole entry): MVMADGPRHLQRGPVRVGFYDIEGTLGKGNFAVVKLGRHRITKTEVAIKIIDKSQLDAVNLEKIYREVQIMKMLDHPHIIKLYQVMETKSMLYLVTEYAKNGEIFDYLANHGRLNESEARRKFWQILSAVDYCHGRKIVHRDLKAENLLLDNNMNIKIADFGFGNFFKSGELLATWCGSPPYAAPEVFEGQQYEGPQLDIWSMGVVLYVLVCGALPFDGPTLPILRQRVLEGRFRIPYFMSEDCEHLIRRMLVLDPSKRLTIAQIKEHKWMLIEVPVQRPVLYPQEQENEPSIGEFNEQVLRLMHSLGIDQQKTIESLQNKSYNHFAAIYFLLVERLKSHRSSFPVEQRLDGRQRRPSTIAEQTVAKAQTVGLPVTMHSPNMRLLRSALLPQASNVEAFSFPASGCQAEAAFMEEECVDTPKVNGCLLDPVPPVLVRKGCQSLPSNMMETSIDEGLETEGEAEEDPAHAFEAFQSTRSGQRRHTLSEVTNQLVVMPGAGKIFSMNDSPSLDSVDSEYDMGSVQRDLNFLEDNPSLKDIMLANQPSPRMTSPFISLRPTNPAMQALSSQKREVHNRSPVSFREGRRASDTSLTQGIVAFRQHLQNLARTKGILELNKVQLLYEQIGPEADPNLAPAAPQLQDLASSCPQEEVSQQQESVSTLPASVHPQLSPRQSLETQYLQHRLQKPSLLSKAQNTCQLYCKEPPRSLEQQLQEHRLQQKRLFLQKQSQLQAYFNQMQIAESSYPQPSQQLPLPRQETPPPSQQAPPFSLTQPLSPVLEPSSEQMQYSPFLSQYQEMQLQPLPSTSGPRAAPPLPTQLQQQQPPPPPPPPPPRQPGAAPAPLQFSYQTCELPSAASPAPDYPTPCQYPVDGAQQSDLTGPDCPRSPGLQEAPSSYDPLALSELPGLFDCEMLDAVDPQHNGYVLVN
# T3 sequence (Q9Y2K2 whole entry): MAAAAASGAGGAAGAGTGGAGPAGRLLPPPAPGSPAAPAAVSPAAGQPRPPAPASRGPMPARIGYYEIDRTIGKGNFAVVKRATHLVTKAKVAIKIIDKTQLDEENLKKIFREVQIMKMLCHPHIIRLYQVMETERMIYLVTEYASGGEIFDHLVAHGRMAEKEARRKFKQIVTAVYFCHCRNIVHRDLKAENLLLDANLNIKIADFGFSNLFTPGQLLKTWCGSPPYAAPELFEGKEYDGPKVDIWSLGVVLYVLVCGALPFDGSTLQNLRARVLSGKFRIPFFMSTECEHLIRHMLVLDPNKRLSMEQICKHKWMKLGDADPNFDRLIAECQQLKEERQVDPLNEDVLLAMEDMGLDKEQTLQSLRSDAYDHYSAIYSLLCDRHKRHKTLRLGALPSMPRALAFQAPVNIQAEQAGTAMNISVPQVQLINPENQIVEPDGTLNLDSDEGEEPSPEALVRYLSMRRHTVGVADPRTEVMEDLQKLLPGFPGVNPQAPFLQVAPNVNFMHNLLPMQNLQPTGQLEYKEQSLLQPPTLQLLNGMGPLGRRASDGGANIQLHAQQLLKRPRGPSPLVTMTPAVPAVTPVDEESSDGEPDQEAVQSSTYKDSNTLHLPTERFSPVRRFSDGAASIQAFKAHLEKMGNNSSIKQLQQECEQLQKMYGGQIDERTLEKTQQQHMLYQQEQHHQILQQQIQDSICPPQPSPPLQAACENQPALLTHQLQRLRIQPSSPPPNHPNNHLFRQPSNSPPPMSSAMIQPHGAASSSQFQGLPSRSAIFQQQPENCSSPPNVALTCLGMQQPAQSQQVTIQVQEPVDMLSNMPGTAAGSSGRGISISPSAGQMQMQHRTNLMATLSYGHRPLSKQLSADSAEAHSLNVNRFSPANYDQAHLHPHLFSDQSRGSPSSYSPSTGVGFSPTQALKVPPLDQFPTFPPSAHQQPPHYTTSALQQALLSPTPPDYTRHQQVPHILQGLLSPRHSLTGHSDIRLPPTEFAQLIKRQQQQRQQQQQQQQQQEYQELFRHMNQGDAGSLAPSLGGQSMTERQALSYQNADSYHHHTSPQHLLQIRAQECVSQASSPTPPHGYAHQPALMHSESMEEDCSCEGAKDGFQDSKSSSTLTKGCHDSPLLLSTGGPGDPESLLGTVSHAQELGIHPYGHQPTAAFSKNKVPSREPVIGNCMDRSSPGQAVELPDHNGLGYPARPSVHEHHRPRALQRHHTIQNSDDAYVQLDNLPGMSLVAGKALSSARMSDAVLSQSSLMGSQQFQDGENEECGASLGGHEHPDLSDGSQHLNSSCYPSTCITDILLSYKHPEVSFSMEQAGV
# T1 sequence (P57059 whole entry): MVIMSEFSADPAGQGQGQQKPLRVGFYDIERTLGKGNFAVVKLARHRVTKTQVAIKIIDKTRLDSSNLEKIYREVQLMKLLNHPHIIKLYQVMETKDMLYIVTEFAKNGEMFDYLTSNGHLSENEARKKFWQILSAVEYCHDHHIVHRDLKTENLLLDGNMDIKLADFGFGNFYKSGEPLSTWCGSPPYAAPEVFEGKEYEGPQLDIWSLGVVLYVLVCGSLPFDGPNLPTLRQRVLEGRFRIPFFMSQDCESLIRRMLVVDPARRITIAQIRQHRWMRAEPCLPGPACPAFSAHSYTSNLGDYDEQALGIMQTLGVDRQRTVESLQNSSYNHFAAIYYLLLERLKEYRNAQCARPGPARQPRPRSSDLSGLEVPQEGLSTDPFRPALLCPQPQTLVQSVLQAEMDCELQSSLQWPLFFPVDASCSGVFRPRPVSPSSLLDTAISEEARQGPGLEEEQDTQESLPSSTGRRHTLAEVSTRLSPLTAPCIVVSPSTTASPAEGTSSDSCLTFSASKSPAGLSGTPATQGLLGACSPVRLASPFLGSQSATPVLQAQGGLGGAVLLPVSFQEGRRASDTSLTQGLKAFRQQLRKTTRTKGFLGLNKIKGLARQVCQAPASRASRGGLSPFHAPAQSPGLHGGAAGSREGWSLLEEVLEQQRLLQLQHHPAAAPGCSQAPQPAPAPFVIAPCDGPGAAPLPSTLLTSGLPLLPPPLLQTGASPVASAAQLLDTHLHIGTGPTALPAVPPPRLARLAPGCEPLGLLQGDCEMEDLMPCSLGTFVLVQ
IC50 (SIK1),IC50 (SIK2),IC50 (SIK3),EC50 [1],SMILES
10 to 100 nM,0.01 to 10 nM,0.01 to 10 nM,0.1 to 100 nM,"COc1cc(-c2cnc3cc(-c4cnn(C)c4)ccn23)cc(O)c1C(=O)NCC(F)(F)F [Cpd 233, 2-hydroxy-6-methoxy-4-[7-(1-methylpyrazol-4-yl)imidazo[1,2-a]pvridin-3-yl]-N-(2,2,2-trifluoroethyl)benzamide]"
0.01 to 10 nM,0.01 to 10 nM,0.01 to 10 nM,> 5000 nM,"COc1cc(-c2cnc3cc(-c4cnn(C(C)C(=O)O)c4)ccn23)cc(OC)c1C(=O)NCC(F)(F)F (stereo not drawn) [Cpd 254, 2-[4-[3-[3,5-dimethoxy-4-(2,2,2-trifluoroethyl-carbamoyl)phenyl]imidazo[1,2-a]pyridin-7-yl]pyrazol-1-yl]propanoic acid]"
> 500 nM,> 500 nM,> 500 nM,1000 to 5000 nM,"COc1cc(-n2cnc3cc(-c4noc(C)n4)ccc32)cc(OC)c1C(=O)NCC(F)(F)F [Cpd 126, 2,6-dimethoxy-4-[5-(5-methyl-1,2,4-oxadiazol-3-yl)benzimidazol-1-yl]-N-(2,2,2-trifluoroethyl)benzamide]"
0.01 to 10 nM,0.01 to 10 nM,0.01 to 10 nM,0.1 to 100 nM,"COc1cc(-c2cnc3cc(-c4cnn(CC(=O)OC5CC5)c4)ccn23)cc(OC)c1C(=O)NCC(F)(F)F [compound 234, cyclopropyl 2-[4-[3-[3,5-dimethoxy-4-(2,2,2-trifluoroethyl-carbamoyl)phenyl]imidazo[1,2-a]pyridin-7-yl]pyrazol-1-yl]acelate]"
10 to 100 nM,10 to 100 nM,10 to 100 nM,100 to 1000 nM,"COc1cc(-n2cnc3cc(-c4ccc(N5CCOCC5)nc4)ccc32)cc(OC)c1C(=O)NCC(F)(F)F [compound 32, 2,6-dimethoxy-4-[5-(6-morpholino-3-pyridyl)benzimidazol-1-yl]-N-(2,2,2-trifluoroethyl)benzamide]"
0.01 to 10 nM,0.01 to 10 nM,0.01 to 10 nM,0.1 to 100 nM,"COc1cc(-c2cnc3cc(-c4cnn(CC(=O)OCC5CCC5)c4)ccn23)cc(OC)c1C(=O)NCC(F)(F)F [Cpd 238, cyclobutylmethyl 2-[4-[3-[3,5-dimethoxy-4-(2,2,2-trifluoroethyl-carbamoyl)phenyl]imidazo[1,2-a]pyridin-7-yl]pyrazol-1-yl]acetate]"
0.01 to 10 nM,0.01 to 10 nM,0.01 to 10 nM,100 to 1000 nM,"COc1cc(-c2cnc3cc(-c4cnn(CC(=O)OC5CCOC5)c4)ccn23)cc(OC)c1C(=O)NCC(F)(F)F (stereo not drawn) [Cpd 237, tetrahydrofuran-3-yl 2-[4-[3-[3,5-dimethoxy-4-(2,2,2-trifluoroethyl-carbamoyl)phenyl]imidazo[1,2-a]pyridin-7-yl]pyrazol-1-yl]acetate]"
10 to 100 nM,10 to 100 nM,10 to 100 nM,> 5000 nM,"COc1cc(-n2cnc3cc(-c4cnn(C)c4)ccc32)cc(OC)c1C(=O)NCCN [compound 163, N-(2-aminoethyl)-2,6-dimethoxy-4-[5-(1-methylpyrazol-4-yl)benzimidazol-1-yl]benzamide]"
0.01 to 10 nM,0.01 to 10 nM,0.01 to 10 nM,100 to 1000 nM,"COc1cc(-c2cnc3cc(-c4cnn(C)c4)ccn23)cc(OC)c1C(=O)N1CC(C)(C)C1 [compound 208, [2,6-dimethoxy-4-[7-(1-methylpyrazol-4-yl)imidazo[1,2-a]pyridin-3-yl]phenyl]-(3,3-dimethylazetidin-1-yl)methanone]"
0.01 to 10 nM,0.01 to 10 nM,0.01 to 10 nM,100 to 1000 nM,"COc1cc(-c2cnc3cc(-c4cnn(CC(=O)OC(C)(C)C)c4)ccn23)cc(OC)c1C(=O)NCC(F)(F)F [Cpd 229, tert-butyl 2-[4-[3-[3,5-dimethoxy-4-(2,2,2-trifluoroethyl-carbamoyl)phenyl]imidazo[1,2-a]pyridin-7-yl]pyrazol-1-yl]acetate]"
0.01 to 10 nM,0.01 to 10 nM,0.01 to 10 nM,0.1 to 100 nM,"COC(=O)Cn1cc(-c2ccn3c(-c4cc(OC)c(C(=O)NCC(F)(F)F)c(OC)c4)cnc3c2)cn1 [Cpd 236, methyl 2-[4-[3-[3,5-dimethoxy-4-(2,2,2-trifluoroethyl-carbamoyl)phenyl]imidazo[1,2-a]pyridin-7-yl]pyrazol-1-yl]acetate]"
10 to 100 nM,10 to 100 nM,10 to 100 nM,1000 to 5000 nM,"CCNC(=O)c1c(OC)cc(-c2cnc3cc(-c4ccnnc4)ccn23)cc1OC(F)F [compound 145, 2-(difluoromethoxy)-N-ethyl-6-methoxy-4-(7-pyridazin-4-ylimidazo[1,2-a]pyridin-3-yl)benzamide]"
10 to 100 nM,10 to 100 nM,0.01 to 10 nM,–,"COc1cncc(-c2ccn3c(-c4cc(OC)c(C(=O)NCC(F)(F)F)c(OC)c4)cnc3c2)c1 [compound 245, 2,6-dimethoxy-4-[7-(5-methoxy-3-pyridyl)imidazo[1,2-a]pyridin-3-yl]-N-(2,2,2-trifluoroethyl)benzamide]"
10 to 100 nM,10 to 100 nM,0.01 to 10 nM,–,"COc1cc(-c2cnc3cc(-c4ccnnc4)ccn23)cc(OC)c1C(=O)NCC(F)(F)F [compound 247, 2,6-dimethoxy-4-(7-pyridazin-4-ylimidazo[1,2-a]pyridin-3-yl)-N-(2,2,2-trifluoroethyl)benzamide]"
100 to 500 nM,100 to 500 nM,> 500 nM,–,"COc1cc(-n2cnc3cc(-c4cnn(C)c4)ccc32)cc(OC)c1C(=O)N1CC(N(C)C)C1 [compound 185, [2,6-dimethoxy-4-[5-(1-methylpyrazol-4-yl)benzimidazol-1-yl]phenyl]-[3-(dimethylamino)azetidin-1-yl]methanone]"
100 to 500 nM,100 to 500 nM,100 to 500 nM,–,"COc1cc(-n2cnc3cc(-c4cnn(C)c4)ccc32)cc(OC)c1C(=O)Nc1cnn(C)c1 [compound 83, 2,6-dimethoxy-N-(1-methylpyrazol-4-yl)-4-[5-(1-methylpyrazol-4-yl)benzimidazol-1-yl]benzamide]"
10 to 100 nM,10 to 100 nM,10 to 100 nM,–,"COc1cc(-n2cnc3cc(-c4cnn(C)c4)ccc32)cc(OC)c1C(=O)NC1CCC[C@H]1O (stereo in doubt) [compound 140, N-[(1R,2R)-2-hydroxycyclopentyl]-2,6-dimethoxy-4-[5-(1-methylpyrazol-4-yl)benzimidazol-1-yl]benzamide]"
> 500 nM,100 to 500 nM,100 to 500 nM,–,"COc1cc(-n2cnc3cc(-c4cnn(C)c4)ccc32)cc(OC)c1C(=O)Nc1ccnn1C [compound 73, 2,6-dimethoxy-N-(2-methylpyrazol-3-yl)-4-[5-(1-methylpyrazol-4-yl)benzimidazol-1-yl]benzamide]"
100 to 500 nM,100 to 500 nM,100 to 500 nM,–,"COc1cc(-n2cnc3cc(-c4ccc(N(C)C)nc4)ccc32)cc(OC)c1C(=O)NCC(F)(F)F [compound 37, 4-[5-[6-(dimethylamino)-3-pyridyl]benzimidazol-1-yl]-2,6-dimethoxy-N-(2,2,2-trifluoroethyl)benzamide]"
